Measurements as given in ChEMBL document CHEMBL4219125, “Small molecule modulators of PCSK9 - A literature and patent overview” (Bioorg Med Chem Lett, 2018).
One block for each molecule: values may come before it. Square brackets hold non-standard residues; d marks the D form. Peptide text beside a SMILES is read from it. hArg = N=C(N)NCCCC[C@H](N)C(=O)O

Assays:
HeLa = experiment: Inhibition of PCSK9 expression in human HeLa cells after overnight incubation by ELISA; assay type: functional, cell-based
[1] = target: T1, Proprotein convertase subtilisin/kexin type 9 (Homo sapiens, UniProt Q8NBP7); experiment: Binding affinity to recombinant human C-terminal His8-tagged PCSK9 expressed in Chinese hamster ovary cells by biolayer interferometry
Mus musculus = experiment: Reduction in plasma total cholesterol level in C57BL/6 mouse at 4 mg/kg, sc administered once daily for 2 weeks with high fat diet by enzymatic method relative to untreated control; assay type: functional; design: scale not given: the % may be the effect or the level left
[2] = target: T1, Proprotein convertase subtilisin/kexin type 9; experiment: Inhibition of binding of full-length recombinant human PCSK9 (M1 to Q692 residues) expressed in HEK293 cells to full-length LDLR (A1 to A699 residues) by SPR analysis
[3] = target: T1, Proprotein convertase subtilisin/kexin type 9; experiment: Inhibition of PCSK9 (unknown origin) at 1.25 uM
[4] = target: T1, Proprotein convertase subtilisin/kexin type 9; experiment: Inhibition of recombinant PCSK9 (unknown origin) expressed in human HepG2 cells assessed as increase in LDL uptake at 1.25 uM after 16 hrs by fluorescence assay; assay type: cell-based; design: scale not given: the % may be the effect or the level left
[5] = target: T1, Proprotein convertase subtilisin/kexin type 9; experiment: Inhibition of recombinant PCSK9 (unknown origin) expressed in human HepG2 cells assessed as increase in LDLR expression levels relative to control; assay type: cell-based; design: scale not given: the % may be the effect or the level left
[6] = target: T1, Proprotein convertase subtilisin/kexin type 9; experiment: Inhibition of recombinant PCSK9 (unknown origin) expressed in human HepG2 cells assessed as increase in LDL uptake at 10 uM after 16 hrs by fluorescence assay; assay type: cell-based; design: scale not given: the % may be the effect or the level left
[7] = target: T1, Proprotein convertase subtilisin/kexin type 9; experiment: Inhibition of recombinant PCSK9 (unknown origin) expressed in human HepG2 cells assessed as increase in LDL uptake at 0.31 uM after 16 hrs by fluorescence assay; assay type: cell-based; design: scale not given: the % may be the effect or the level left
[8] = target: T1, Proprotein convertase subtilisin/kexin type 9; experiment: Activation of PCSK9 (unknown origin) expressed in human HepG2 cells assessed as decrease in LDL uptake at 25 uM; assay type: cell-based; design: scale not given: the % may be the effect or the level left; conditions: hepg2, 25 µM
[9] = target: T1, Proprotein convertase subtilisin/kexin type 9; experiment: Inhibition of PCSK9 in human HepG2 cells assessed as increase in uptake of fluorescent Dil-LDL at 0.37 uM relative to control; assay type: cell-based
[10] = target: T1, Proprotein convertase subtilisin/kexin type 9; experiment: Inhibition of PCSK9 in human HepG2 cells assessed as increase in uptake of fluorescent Dil-LDL at 1.5 uM relative to control; assay type: cell-based
[11] = target: T1, Proprotein convertase subtilisin/kexin type 9; experiment: Inhibition of recombinant human C-terminal His8-tagged PCSK9 expressed in Chinese hamster ovary cells by TR-FRET assay; assay type: cell-based
Huh-7 = experiment: Inhibition of PCSK9 expression in human HuH7 cells after overnight incubation by ELISA; assay type: functional, cell-based
[12] = Ratio of drug level in liver to plasma in monkey at 30 mg/kg, po; assay type: ADME, organism-based, Macaca mulatta; conditions: rhesus monkey, liver and plasma
HepG2 = experiment: Inhibition of PCSK9 production in human HepG2 cells after 24 hrs by ELISA; assay type: functional, cell-based; conditions: HepG2, 24 h
[13] = target: T1, Proprotein convertase subtilisin/kexin type 9; experiment: Inhibition of PCSK9 (unknown origin) expressed in human HepG2 cells assessed as increase in LDL uptake at 0.5 uM; assay type: cell-based; design: scale not given: the % may be the effect or the level left
[14] = target: T1, Proprotein convertase subtilisin/kexin type 9; experiment: Inhibition of PCSK9 in human HepG2 cells assessed as increase in LDL receptor levels at 200 uM after 18 to 24 hrs by Western blot analysis relative to control; assay type: cell-based
[15] = target: T1, Proprotein convertase subtilisin/kexin type 9; experiment: Inhibition of PCSK9 in human HuH7 cells assessed as increase in cell surface LDLR expression level at 100 uM by FACS analysis relative to control; assay type: cell-based; design: scale not given: the % may be the effect or the level left
[16] = target: T1, Proprotein convertase subtilisin/kexin type 9; experiment: Inhibition of PCSK9 in human HuH7 cells assessed as increase in LDL uptake by FACS analysis; assay type: cell-based; design: scale not given: the % may be the effect or the level left
Hamster [17] = experiment: In vivo inhibition of PCSK9 in dietary hyperlipidemia hamster model assessed as reduction in blood LDL-c level at 0.01 mg/kg, po administered daily for 7 days; assay type: functional; conditions: Cricetinae, 168 h
Hamster [18] = experiment: In vivo inhibition of PCSK9 in dietary hyperlipidemia hamster model assessed as reduction in blood LDL-c level at 0.04 mg/kg, po administered daily for 7 days; assay type: functional; conditions: Cricetinae, 168 h
[19] = target: T1, Proprotein convertase subtilisin/kexin type 9; experiment: Inhibition of PCSK9 in human HepG2 cells assessed as increase in LDLR expression levels at 1.6 uM relative to control; assay type: cell-based
[20] = target: T1, Proprotein convertase subtilisin/kexin type 9; experiment: Inhibition of PCSK9 (unknown origin) expressed in human HepG2 cells assessed as increase in LDL uptake at 100 uM; assay type: cell-based; design: scale not given: the % may be the effect or the level left
Rattus norvegicus [21] = experiment: Reduction of circulating PCSK9 level in rat plasma at 50 mg/kg, po administered daily for 14 days; assay type: functional; conditions: 336 h
Rattus norvegicus [22] = experiment: In vivo inhibition of PCSK9 in rat plasma assessed as decrease in LDL-c level at 50 mg/kg, po administered daily for 14 days; assay type: functional; conditions: 336 h
Rattus norvegicus [23] = experiment: In vivo inhibition of PCSK9 in rat plasma assessed as decrease in total plasma cholesterol level at 50 mg/kg, po administered daily for 14 days; assay type: functional; conditions: 336 h

IC50 (HeLa): 3700 nM
Molecule: Cn1ncc(-c2ccc(C(=O)N(c3ncccc3Cl)[C@@H]3CCCNC3)cc2F)c1-c1nnn[nH]1

Molecule: CC(=O)N[C@H](C(=O)N[C@H](C(=O)N[C@@H](Cc1ccccc1)C(=O)N[C@H](C(=O)N[C@@H](CO)C(=O)N[C@@H](Cc1c[nH]c2ccccc12)C(=O)N[C@@H](CCC(=O)O)C(=O)N[C@@H](CCC(=O)O)C(=O)N[C@@H](Cc1ccc(O)cc1)C(=O)N[C@@H](CC(C)C)C(=O)N[C@@H](CC(=O)O)C(=O)N[C@@H](Cc1c[nH]c2ccccc12)C(=O)N[C@H](C(N)=O)C(C)C)[C@@H](C)O)C(C)C)[C@@H](C)O
Kd [1]: 700 nM

Molecule: CC(C)c1c(C(=O)Nc2ccccc2)c(-c2ccccc2)c(-c2ccc(F)cc2)n1CC[C@@H](O)C[C@@H](O)CC(=O)O [ATORVASTATIN]
Activity (Mus musculus): 27%

IC50 [2]: 11200 nM
Molecule: Cn1cncc1-c1ncc(-c2ncc(-c3ncc(-c4ccccc4)n3C)n2C)n1C

inhibition [3]: > 50%
Molecule: O=S(=O)(Nc1cccc2c1CCCC2)c1ccc(C2CCNCC2)cc1

Activity [4]: 33%
Molecule: Cc1cc2c(cc1-c1ccccc1F)C(=O)NCC2

Molecule: Cc1cc2c(cc1-c1ccccc1F)CNCC2
Activity [5]: 10%
Activity [6]: > 100%
Activity [7]: 50%

Activity [8]: 50%
Molecule: O=C(N[C@H](CNc1nn[nH]n1)Cc1c[nH]c2ccccc12)[C@H](Cc1ccc(O)cc1)NC(=O)C12CC3CC(CC(C3)C1)C2

inhibition [3]: 66%
Molecule: O=S(=O)(Nc1cccc2c1CCCC2)c1ccc(N2CCNCC2)cc1

Molecule: CCN(CC)C(=O)c1ccc(NC(=O)CSc2nnc(-c3cccs3)n2C2CC2)cc1
fold change (FC) [9]: 3
fold change (FC) [10]: 5

IC50 [11]: 8300 nM
Molecule: CC[C@H](C)[C@H](NC(=O)[C@H](CCCCNC(=N)N)NC(=O)[C@@H](NC(=O)[C@H](CC(C)C)NC(=O)[C@H](CC(N)=O)NC(=O)[C@H](Cc1c[nH]c2ccccc12)NC(=O)CNC(=O)[C@@H]1CCCN1C(=O)[C@H](Cc1ccccc1)NC(=O)[C@H](CO)NC(=O)[C@H](CCC(=O)O)NC(=O)[C@@H](N)CCSC)C(C)C)C(=O)NCC(=O)N[C@@H](CC(C)C)C(=O)N[C@@H](CC(C)C)C(=O)N[C@@H](CCCNC(=N)N)C(=O)O (H-MESFPGWNLV[hArg]IGLLR-OH)

IC50 (Huh-7): 2200 nM
Molecule: COc1ccc(CCC(=O)N(c2nccc3ccccc23)[C@@H]2CCCNC2)cc1

Kp [12]: 28
Molecule: CCOC(=O)O[C@@H](C)n1nnnc1-c1c(-c2ccc(C(=O)N(c3ncccc3Cl)[C@@H]3CCCNC3)cc2F)cnn1C [PF-06815345]

IC50 (HepG2): 2.1 nM
Molecule: CC(=O)Nc1ccc2nc(-c3ccc(C(F)(F)F)cc3)oc2c1C(F)(F)F

Molecule: c1ccc2c(c1)NC1CNCCC21 (centres undefined)
Activity [13]: 60%

fold change (FC) [14]: 15
Molecule: Cc1ccc(C(=O)Nc2ccc(S(=O)(=O)O)c3cc(S(=O)(=O)O)cc(S(=O)(=O)O)c23)cc1NC(=O)c1cccc(NC(=O)Nc2cccc(C(=O)Nc3cc(C(=O)Nc4ccc(S(=O)(=O)O)c5cc(S(=O)(=O)O)cc(S(=O)(=O)O)c45)ccc3C)c2)c1

Activity [15]: 100%
Activity [16]: 95%
Molecule: H-VTVRFW-OH

IC50 (HepG2): 0.036 nM
Molecule: FC(F)(F)c1ccc(-c2nc3ccc(C(F)(F)F)c(Cl)c3o2)cc1
inhibition in vivo at 0.01 mg/kg (Hamster [17]): 46%
inhibition in vivo at 0.04 mg/kg (Hamster [18]): 57%

fold change (FC) [19]: 8
fold change (FC) [9]: 6
fold change (FC) [10]: 10
Molecule: Cc1cc(C(=O)C2=C(O)C(=O)N(CCCN3CCOCC3)C2c2ccncc2)ccc1OCc1ccccc1 (centres undefined)
Activity (Mus musculus): 32%

IC50 (HepG2): 29.7 nM
Molecule: FC(F)(F)c1ccc(-c2nc3c(ccc4cc[nH]c43)o2)cc1

Activity [20]: 105%
Molecule: CC(=O)N[C@@H](CO)C(=O)N[C@@H](COP(=O)(O)O)C(=O)N1CCC(c2ccc(C(F)(F)F)cc2)CC1

IC50 (HeLa): 500 nM
Molecule: O=C(c1ccc(-n2nnc3cccnc32)cc1)N(c1ncccc1Cl)[C@@H]1CCCNC1
inhibition in vivo at 50 mg/kg (Rattus norvegicus [21]): 50%
inhibition in vivo at 50 mg/kg (Rattus norvegicus [22]): 58%
inhibition in vivo at 50 mg/kg (Rattus norvegicus [23]): 30%
